Laboratory results reported in the supplement of paper PMC5908809.

Key:
[1] = test system: normal NK cells expanded with K562-aAPC; assay: percent inhibition of viability; higher = more inhibition; details: 72 h, IL-2 2.5 ng/mL
Protocol: (§1)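 Drug sensitivity and resistance testing on K562-aAPC-expanded normal NK cells: 5 concentrations (10-fold steps over a 10,000-fold range), 72 h at 37 °C, viability by CellTiter-Glo normalised to DMSO and benzethonium chloride controls; DSS from the fitted curve.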

[2] = test system: SNK-6 (IL-2 2.5 ng/mL); assay: drug sensitivity score (DSS) (DSS units); higher = more sensitive; extreme values may be limits of the assay; details: 72 h
[3] = test system: YT (IL-2 2.5 ng/mL); assay: as above; details: 72 h
[4] = test system: KAI3 (IL-2 2.5 ng/mL); assay: as above; details: 72 h
[5] = test system: NK-92 (IL-2 2.5 ng/mL); assay: as above; details: 72 h
[6] = test system: IMC-1 (IL-2 20 ng/mL); assay: as above; details: 72 h
[7] = test system: NKL (IL-2 2.5 ng/mL); assay: as above; details: 72 h
[8] = test system: normal primary NK cells, pool 2 (3 donors) (IL-2 2.5 ng/mL); assay: as above; details: 72 h
[9] = test system: normal primary NK cells, pool 3 (3 donors) (IL-2 2.5 ng/mL); assay: as above; details: 72 h
[10] = test system: normal primary NK cells, pool 1 (3 donors) (IL-2 2.5 ng/mL); assay: as above; details: 72 h
[11] = test system: normal primary NK cells, pool 1 (3 donors), resting (IL-2 0 ng/mL); assay: as above; details: 72 h
[12] = test system: KHYG-1 (IL-2 2.5 ng/mL); assay: as above; details: 72 h
[13] = test system: NK-YS (IL-2 2.5 ng/mL); assay: as above; details: 72 h
[14] = test system: DERL-7 (IL-2 2.5 ng/mL); assay: as above; details: 72 h
[15] = test system: normal NK cells expanded with K562-aAPC; assay: as above; details: 72 h; IL-2 2.5 ng/mL
Protocol: as §1

[16] = test system: SNK-6 (IL-2 2.5 ng/mL); assay: percent inhibition of viability; higher = more inhibition; details: 72 h
[17] = test system: YT (IL-2 2.5 ng/mL); assay: as above; details: 72 h
[18] = test system: KAI3 (IL-2 2.5 ng/mL); assay: as above; details: 72 h
[19] = test system: NK-92 (IL-2 2.5 ng/mL); assay: as above; details: 72 h
[20] = test system: IMC-1 (IL-2 20 ng/mL); assay: as above; details: 72 h
[21] = test system: NKL (IL-2 2.5 ng/mL); assay: as above; details: 72 h
[22] = test system: normal primary NK cells, pool 2 (3 donors) (IL-2 2.5 ng/mL); assay: as above; details: 72 h
[23] = test system: normal primary NK cells, pool 3 (3 donors) (IL-2 2.5 ng/mL); assay: as above; details: 72 h
[24] = test system: normal primary NK cells, pool 1 (3 donors) (IL-2 2.5 ng/mL); assay: as above; details: 72 h
[25] = test system: normal primary NK cells, pool 1 (3 donors), resting (IL-2 0 ng/mL); assay: as above; details: 72 h
[26] = test system: KHYG-1 (IL-2 2.5 ng/mL); assay: as above; details: 72 h
[27] = test system: NK-YS (IL-2 2.5 ng/mL); assay: as above; details: 72 h
[28] = test system: DERL-7 (IL-2 2.5 ng/mL); assay: as above; details: 72 h

O=C(O)c1ccc2c(c1)nc(Nc1cccc(Cl)c1)c1ccncc12 [Silmitasertib] (max concentration tested 10000 nM)
percent inhibition of viability [%]
Details | 1 nM | 10 nM | 100 nM | 1000 nM | 10000 nM
[1] | 6.72 | 1.13 | 2.51 | 24.6 | 85.7
[16] | 4.5 | 3.13 | -1.8 | -10.8 | 85.2
[17] | 5.21 | 5.15 | 4.79 | 17.7 | 79.9
[18] | 4.28 | 8.25 | 8.8 | 16.1 | 84.8
[19] | 6.03 | 10.9 | -12.3 | -16.9 | 90.2
[20] | 7.09 | 6.12 | 5.81 | -2.16 | 48.4
[21] | 11.5 | 10.7 | 2.41 | 13.4 | 76.3
[22] | -8.83 | -6.36 | 2.09 | 8.72 | 76.5
[23] | -4.66 | -2.89 | -4.84 | 9.91 | 70.3
[24] | -9.41 | -7.07 | -7.39 | 18.1 | 85.6
[25] | -25.1 | -31.8 | -43.9 | -9.05 | 63.9
[26] | 2.32 | 3.89 | 1.97 | 14.4 | 98.1
[27] | 5.01 | 1.7 | 1.66 | 10.8 | 88.7
[28] | -3.79 | 0.67 | -2.32 | 10.4 | 96

Details | drug sensitivity score
[2] | 4.04
[3] | 7.24
[4] | 7.33
[5] | 4.09
[6] | 2.35
[7] | 6.45
[8] | 5.68
[9] | 5.54
[10] | 7.64
[11] | 2.91
[12] | 7.83
[13] | 6.72
[14] | 7.04
[15] | 8.41

CO[C@H]1C[C@@H]2CC[C@@H](C)[C@@](O)(O2)C(=O)C(=O)N2CCCC[C@H]2C(=O)O[C@H]([C@H](C)C[C@@H]2CC[C@@H](O)[C@H](OC)C2)CC(=O)[C@H](C)/C=C(\C)[C@@H](O)[C@@H](OC)C(=O)[C@H](C)C[C@H](C)/C=C/C=C/C=C/1C [Sirolimus] (max concentration tested 100 nM)
percent inhibition of viability [%]
Details | 0.01 nM | 0.1 nM | 1 nM | 10 nM | 100 nM
[1] | -3.63 | -1.36 | 3.81 | 13.8 | 18.7
[16] | 7.11 | 11.7 | 26.8 | 58 | 53.6
[17] | -0.6 | 3.68 | 8.62 | 48.9 | 50
[18] | -2.33 | -1.67 | 15.9 | 44.7 | 54.9
[19] | -4.22 | 6.09 | 10.4 | 22 | 41.1
[20] | -3.21 | 1.18 | -3.68 | -15.7 | -35.8
[21] | 10.2 | 24.2 | 45.2 | 58.8 | 68.7
[22] | -8.36 | 2 | 15.3 | 16.1 | 24.9
[23] | -9.48 | -6.09 | 3.92 | 6.87 | 10.3
[24] | 0.77 | -8.98 | 3.92 | 5.36 | 11.1
[25] | 1.62 | -12 | 3.7 | 1.9 | 13.7
[26] | -2.67 | 2.99 | 5.43 | 47.1 | 73.8
[27] | -0.35 | 1.64 | 29.4 | 54.6 | 58.5
[28] | 1.91 | 1.51 | 7.44 | 38.3 | 55.7

Details | drug sensitivity score
[2] | 13.6
[3] | 10.3
[4] | 10
[5] | 4.93
[6] | 0
[7] | 19.3
[8] | 3.82
[9] | 0
[10] | 0.01
[11] | 0.29
[12] | 9.94
[13] | 13.8
[14] | 8.02
[15] | 1.68
